According to ChEMBL document CHEMBL5055679, “Discovery of a Novel Androgen Receptor Antagonist Manifesting Evidence to Disrupt the Dimerization of the Ligand-Binding Domain via Attenuating the Hydrogen-Bonding Network Between the Two Monomers” (J Med Chem, 2021):
pIC50: −log10 of the molar value. Active and inactive are the calls of the source. The calls are words filed in the database; no cut-off is given here.

Key:
[1] = target: T1, Androgen receptor (Homo sapiens, UniProt P10275); test: Inhibition of AR transcriptional activity in human LNCaP cells harboring ARR2PB-eGFP incubated for 72 hrs by fluorescence assay; assay type: cell-based
T1 sequence (P10275 whole entry): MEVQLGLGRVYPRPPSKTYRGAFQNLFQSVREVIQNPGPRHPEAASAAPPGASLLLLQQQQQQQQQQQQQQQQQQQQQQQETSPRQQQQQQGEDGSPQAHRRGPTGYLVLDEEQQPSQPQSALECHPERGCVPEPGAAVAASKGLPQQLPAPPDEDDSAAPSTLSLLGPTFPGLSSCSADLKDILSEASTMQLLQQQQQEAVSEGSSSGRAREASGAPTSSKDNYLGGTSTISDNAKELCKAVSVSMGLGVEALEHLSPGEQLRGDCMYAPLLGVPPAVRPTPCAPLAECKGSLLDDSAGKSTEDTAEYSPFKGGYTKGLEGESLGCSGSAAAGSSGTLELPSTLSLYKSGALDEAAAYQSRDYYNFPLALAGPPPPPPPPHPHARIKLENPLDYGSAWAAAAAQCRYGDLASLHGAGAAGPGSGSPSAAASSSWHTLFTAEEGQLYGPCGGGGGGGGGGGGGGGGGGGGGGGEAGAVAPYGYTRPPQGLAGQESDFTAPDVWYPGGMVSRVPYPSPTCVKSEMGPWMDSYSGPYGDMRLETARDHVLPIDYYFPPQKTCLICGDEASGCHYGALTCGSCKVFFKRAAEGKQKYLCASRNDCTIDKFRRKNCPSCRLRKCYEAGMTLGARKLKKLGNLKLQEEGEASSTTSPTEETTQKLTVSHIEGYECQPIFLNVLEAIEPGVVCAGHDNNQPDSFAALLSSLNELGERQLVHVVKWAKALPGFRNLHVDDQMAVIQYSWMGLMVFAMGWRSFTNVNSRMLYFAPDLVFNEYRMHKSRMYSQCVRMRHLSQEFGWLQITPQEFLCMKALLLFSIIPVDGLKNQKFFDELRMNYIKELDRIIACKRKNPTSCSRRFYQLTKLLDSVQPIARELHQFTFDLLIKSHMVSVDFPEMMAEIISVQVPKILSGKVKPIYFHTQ

[2] = organism: Homo sapiens; test: Antagonist activity at human androgen receptor N756A mutant at 10 uM by dual-Glo luciferase assay; conditions: filed as antagonist
[3] = target: T2, Androgen receptor (Homo sapiens) (UniProt P10275); test: Inhibition of AR transcriptional activity in human LNCaP cells harboring ARR2PB-eGFP at 10 uM incubated for 72 hrs by fluorescence assay; assay type: cell-based; conditions: filed as antagonist
T2 sequence (whole entry): T1 sequence (P10275 whole entry)

[4] = target: T2, Androgen receptor (Homo sapiens); test: Binding affinity to GST-tagged AR ligand binding domain (unknown origin) at 10 uM measured after 4 hrs by fluorescence polarization assay
[5] = target: T1, Androgen receptor
Description: Binding affinity to GST-tagged AR ligand binding domain (unknown origin) measured after 4 hrs by fluorescence polarization assay

[6] = target: T1, Androgen receptor; test: Inhibition of AR transcriptional activity in human LNCaP cells harboring ARR2PB-eGFP assessed as decrease in PSA level; assay type: cell-based, LN-18
[7] = tested on: NIH3T3; test: Cytotoxicity against mouse NIH3T3 cells assessed as reduction in cell viability incubated for 72 hrs by MTT assay; assay type: cell-based; conditions: nih3t3, 72 h
[8] = tested on: GES1; test: Cytotoxicity against human GES1 cells assessed as reduction in cell viability incubated for 72 hrs by MTT assay; assay type: cell-based; conditions: ges1, 72 h
[9] = tested on: LNCaP; test: Inhibition of colony formation in human LANCaP cells after 2 weeks by crystal violet staining based assay; assay type: functional, cell-based; conditions: dose 2-20 µM

| SMILES | pIC50 [1] | further results |
| --- | --- | --- |
| Cc1ccc(COc2ccc3c(C(F)(F)F)cc(=O)oc3c2)cc1 | 6.21 | – |
| O=c1cc(C(F)(F)F)c2ccc(OCc3ccc4ccccc4c3)cc2o1 | < 4.30 | – |
| O=c1cc(C(F)(F)F)c2ccc(OCc3ccncc3)cc2o1 | 5.72 | – |
| O=C(c1ccccc1)c1ccc(/N=C/c2ccccc2O)cc1 | < 4.30 | – |
| O=c1cc(C(F)(F)F)c2ccc(OCc3ccccc3Cl)cc2o1 | 6.39 | – |
| O=C(Oc1ccc2c(C(F)(F)F)cc(=O)oc2c1)C1CCCCC1 | < 4.30 | – |
| CNC(=O)c1ccc(N2C(=S)N(c3cnc(C#N)c(C(F)(F)F)c3)C(=O)C23CCC3)cc1F | – | Activity [2]: Active |
| O=c1cc(C(F)(F)F)c2ccc(OCc3ccc(Cl)cc3)cc2o1 | 5.98 | – |
| Cn1cc(C(=O)Nc2ccc3c(C(F)(F)F)cc(=O)oc3c2)c(I)n1 | < 4.30 | – |
| CCn1cc(C(=O)Nc2ccc3c(C(F)(F)F)cc(=O)oc3c2)c(C)n1 | < 4.30 | – |
| Cc1ccc(NCc2ccccc2OCc2cccc3ccccc23)cc1 | – | inhibition [3]: 40%; Activity [4]: inactive |
| NC(=O)c1ccc(COc2ccc3c(C(F)(F)F)cc(=O)oc3c2)cc1 | < 4.30 | – |
| O=c1cc(C(F)(F)F)c2ccc(OCc3ccc(-c4ccccc4)cc3)cc2o1 | < 4.30 | – |
| O=c1cc(C(F)(F)F)c2ccc(OCc3c(F)cccc3Cl)cc2o1 | 6.11 | – |
| O=c1cc(C(F)(F)F)c2ccc(OCc3ccc([N+](=O)[O-])cc3)cc2o1 | < 4.30 | – |
| O=C1C2CC=CCC2C(=O)N1c1cccc(C(F)(F)F)c1 (stereo not drawn) | – | inhibition [3]: 40%; Activity ([4]; filed as antagonist): Active |
| Cc1cccc(COc2ccc3c(C(F)(F)F)cc(=O)oc3c2)c1 | 5.85 | – |
| O=C(Nc1ccc2c(C(F)(F)F)cc(=O)oc2c1)c1cccc(Cl)c1 | < 4.30 | – |
| O=C(Nc1ccc2c(C(F)(F)F)cc(=O)oc2c1)c1ccccc1Cl | < 4.30 | – |
| Oc1ccccc1/C=N/c1ccc(Cl)c(Cl)c1 | < 4.30 | – |
| CC(O)c1cc(C(=O)N[C@@H](C)Cn2ccc(-c3ccc(C#N)c(Cl)c3)n2)n[nH]1 (stereo partly drawn) | – | Activity [2]: Active |
| CC(=O)c1ccc(COc2ccc3c(C(F)(F)F)cc(=O)oc3c2)cc1 | < 4.30 | – |
| O=c1cc(C(F)(F)F)c2ccc(OCc3cccc(Br)c3)cc2o1 | 5.64 | – |
| Cc1ccc(OC(=O)Nc2ccc3c(C(F)(F)F)cc(=O)oc3c2)c(C)c1 | < 4.30 | – |
| O=C(Nc1ccc2c(C(F)(F)F)cc(=O)oc2c1)c1ccccc1 | < 4.30 | – |
| Cc1ccc(/N=C/c2ccccc2O)cc1Br | < 4.30 | – |
| O=c1cc(C(F)(F)F)c2ccc(OCc3ccc(C(F)(F)F)cc3)cc2o1 | 6.05 | – |

| SMILES | pIC50 [1] | further results |
| --- | --- | --- |
| O=c1cc(C(F)(F)F)c2ccc(OCc3ccccc3F)cc2o1 | 6.04 | – |
| O=c1cc(C(F)(F)F)c2ccc(OCc3ccc(F)cc3)cc2o1 | 6.33 | – |
| O=c1cc(C(F)(F)F)c2ccc(OCc3ccccc3Br)cc2o1 | 6.03 | – |
| O=c1cc(C(F)(F)F)c2ccc(/N=C/c3ccccc3O)cc2o1 | 5.25 | inhibition [3]: 40%; Activity ([4]; filed as antagonist): Active; pIC50 [5]: 5.78; pIC50 [6]: 5.43 |
| Oc1ccccc1/C=N/c1ccc2oc(-c3ccccc3)nc2c1 | < 4.30 | – |
| COc1ccc([N+](=O)[O-])cc1COc1ccc2c(C(F)(F)F)cc(=O)oc2c1 | < 4.30 | – |
| Cn1cc(C(=O)Nc2ccc3c(C(F)(F)F)cc(=O)oc3c2)c(Br)n1 | < 4.30 | – |
| O=c1cc(C(F)(F)F)c2ccc(OCc3cccnc3)cc2o1 | < 4.30 | – |
| Cn1cc(C(=O)Nc2ccc3c(C(F)(F)F)cc(=O)oc3c2)cn1 | < 4.30 | – |
| CCOC(=O)C(CC)Oc1ccc2c(C(F)(F)F)cc(=O)oc2c1 (stereo not drawn) | < 4.30 | – |
| CNC(=O)c1ccc(N2C(=S)N(c3ccc(C#N)c(C(F)(F)F)c3)C(=O)C2(C)C)cc1F [ENZALUTAMIDE] | – | Activity [7]: Non-Toxic; Activity [8]: Non-Toxic; inhibition [9]: Dose-dependent effect; Activity [2]: Active |
| CC(C(=O)Nc1ccccc1Cl)c1ccc(-c2ccccc2)c(F)c1 (stereo not drawn) | – | inhibition [3]: 40%; Activity [4]: inactive |
| Cc1cccc(C(=O)Nc2ccc3c(C(F)(F)F)cc(=O)oc3c2)c1 | < 4.30 | – |
| COC(=O)C(CC(C)C)Oc1ccc2c(C(F)(F)F)cc(=O)oc2c1 (stereo not drawn) | < 4.30 | – |
| O=C(Nc1ccc2c(C(F)(F)F)cc(=O)oc2c1)c1ccccc1F | < 4.30 | – |
| O=c1cc(C(F)(F)F)c2ccc(OCc3cc4c(cc3Cl)OCO4)cc2o1 | 5.83 | – |
| COC(=O)c1ccc(COc2ccc3c(C(F)(F)F)cc(=O)oc3c2)cc1 | 4.51 | – |
| N#Cc1cccc(/N=C/c2ccccc2O)c1 | < 4.30 | – |
| CC(C)c1ccc(COc2ccc3c(C(F)(F)F)cc(=O)oc3c2)cc1 | 5.03 | – |
| O=c1cc(C(F)(F)F)c2ccc(OCc3ccccc3)cc2o1 | 5.93 | – |
| O=c1cc(C(F)(F)F)c2ccc(OCc3ccc(OC(F)(F)F)cc3)cc2o1 | 4.60 | – |
| O=c1cc(C(F)(F)F)c2ccc(OCc3ccc4c(c3)OCO4)cc2o1 | 5.03 | – |
| C[C@H](Oc1cc(Cl)ccc1Cl)C(=O)Nc1ccc2c(C(F)(F)F)cc(=O)oc2c1 | < 4.30 | – |
| O=c1cc(C(F)(F)F)c2ccc(OCc3ccccn3)cc2o1 | < 4.30 | – |
| O=C(Nc1ccc2c(C(F)(F)F)cc(=O)oc2c1)c1nc2ncccn2n1 | < 4.30 | – |
| COc1ccc(COc2ccc3c(C(F)(F)F)cc(=O)oc3c2)cc1 | 5.79 | – |
